10 compounds from PubChem BioAssay AID1963840 (Molecular Pharmacology Branch, DTP, NCI, 2024) can be followed below.

SMILES strings stand for the structures. pIC50: −log10 of the molar value. “And” between values parts separate entries of the source, which are not always exact repeats. Identical values can stand only once.

The test deals with 695427-040-R-J1-PDC complex spheroid viability. The experiment in a line: Anticancer human tumor 695427-040-R-J1-PDC patient-derived colon adenocarcinoma cell line growth inhibition [POLQ]. To be noted: for viability, T/C: stronger effect = lower value. As to the method: Multicellular complex tumor spheroid response to Polymerase (POL) inhibitors (novobiocin, ART-558, RP6685) in combination with a variety of drugs and investigational agents in selected tumor cell lines
The POL inhibitors (novobiocin, ART-558, and RP6685) were evaluated both individually and in combination with standard of care and investigational anticancer small molecules within a complex spheroid model of solid tumors. . Complex spheroids include a stromal component modeled by human endothelial cells (HUVEC) and fibroblasts modeled by human mesenchymal stem cells (MSCs). The concentration ranges selected for each drug and investigational agent were based upon clinically achievable concentrations if the clinical Cmax of the agent was known.
Compounds. The drugs and investigational agents: novobiocin (NSC847541), ART-558 (NSC835418), RP-6685 (NSC848927), peposertib (NSC802822), ceralasertib (NSC780249), elimusertib (NSC800525), camonsertib (NSC841442), AZD-1390 (NSC803789), olaparib (NSC753686), talazoparib (NSC767125), rucaparib (NSC756644), sotorasib (NSC818433), MRTX-1133 (NSC836407), SN-38 (NSC673596), topotecan (NSC609699), epotoside (NSC141540), doxorubicin (NSC123127), gemcitabine (NSC613327), 5-fluorouracil (NSC19893), paclitaxel (NSC125973), vemurafenib (NSC761431), MSA-2 (NSC828583), SN-011 (NSC837082), adavosertib (NSC754352), prexasertib (NSC758257), carboplatin (NSC241240) and oxaliplatin (NSC266046), were obtained from the National Cancer Institute (NCI) Developmental Therapeutics Program Chemical Repository (21). The FDA-approved anticancer drug set is available from the Developmental Therapeutics Program at https://dtp.cancer.gov/organization/dscb/obtaining/. […] The stock solutions were prepared in dimethyl sulfoxide (DMSO, Sigma-Aldrich, St. Louis, MO, cat. D2650), except for the platinum compounds which were prepared in saline (Quality Biological, Gaithersburg, MD, cat. 114-055-101), at 800-fold the tested concentration and stored at -70 degrees C prior to their use. All drugs and investigational agents were tested over a range starting from a high concentration at or near the clinical Cmax and decreasing in half-log increments. If the clinical Cmax for an agent had not been determined, the highest concentration tested was 10 microM, except for SN-38, which was tested at a high concentration of 1 microM.
Cell Culture. All cells were maintained in an incubator at 37 degrees C and 5% CO2 with 95% humidity. The PDC lines were cultured according to standard operating procedures established by the NCI PDMR (https://pdmr.cancer.gov). Table 3 of the manuscript, lists the cell lines along with the number of the three cell types plated to form the mct-spheroids and media for tumor cell growth. After thawing, all PDC lines, except 997537-175-T-J1-PDC and 415267-285-R-J2-PDC, were cultured in Matrigel-coated flasks prepared with a working solution of 1X Ham's F-12 nutrient mix, without supplementation (Thermo Fisher Scientific, cat. 11765054), 100 U/mL penicillin-streptomycin (Thermo Fisher Scientific, cat. 15140122), and 2.5% Matrigel (Corning Inc., Corning, NY, cat. 354248) for the first three passages. The two PDC lines 997537-175-T-J1-PDC and 415267-285-R-J2-PDC were cultured on uncoated flasks. The 857933-349-R-J2-PDC line was cultured in 6C/Colon 1B media containing advanced DMEM/F-12 (Thermo Fisher Scientific, cat. 12634028), 10 mM HEPES (Thermo Fisher Scientific, cat. 15630080), 1X GlutaMAX supplement (Thermo Fisher Scientific, cat. 35050061), 0.1 mg/mL primocin (InvivoGen, San Diego, CA, cat. ant-pm-2), 10% defined fetal bovine serum, heat inactivated (HyClone Laboratories Inc., Logan, UT, cat. SH30070.03HI), 50% L-WRN conditioned media (ATCC, cat. CRL-3276), 1.25 mM N-Acetyl-L-cysteine (Sigma-Aldrich, cat. A9165), 10 mM nicotinamide (Sigma-Aldrich, cat. N0636), 1X B-27 supplement (Thermo Fisher Scientific, cat. 17504044), 1X N-2 supplement (Thermo Fisher Scientific, cat. […]
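Further: spheroids exposed to compounds for seven days.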

As to `C=CCn1c(=O)c2cnc(Nc3ccc(N4CCN(C)CC4)cc3)nc2n1-c1cccc(C(C)(C)O)n1`, the viability, T/C (commonly the result in the treated group divided by that in the control group, in per cent) runs as follows: (compound 0.00316 µM) 99.5% and 88.8% and 103%; (compound 0.01 µM) 90.1% and 92% and 91.7%; (compound 0.0316 µM) 98.5% and 104% and 103%; (compound 0.1 µM) 103% and 99.2% and 95.7%; (compound 0.316 µM) 86.5% and 95.4% and 93.7%; (compound 1 µM) 77.5% and 73.7% and 82%. The pIC50 (usually the negative decadic logarithm of the IC50, by convention in mol/L) (curve of compound) is below 6.00.
In the case of `CC(=O)O[C@H]1C(=O)[C@@]2(C)[C@H]([C@H](OC(=O)c3ccccc3)[C@]3(O)C[C@H](OC(=O)[C@H](O)[C@@H](NC(=O)c4ccccc4)c4ccccc4)C(C)=C1C3(C)C)[C@]1(OC(C)=O)CO[C@@H]1C[C@@H]2O`, the viability, T/C by setting is: (compound 0.00949 µM) 93.8% and 92.4% and 99.8%; (compound 0.03 µM) 86.1% and 95.4% and 86.8%; (compound 0.0949 µM) 91.8% and 101% and 86.8%; (compound 0.3 µM) 90.8% and 96.8% and 89.7%; (compound 0.949 µM) 102% and 98.8% and 82.3%; (compound 3 µM) 84.5% and 89.3% and 74.2%. Also, where the note is “curve of compound”, the pIC50 is below 5.52.
As for `CC1COCCN1c1cc(-c2ccnn2C)c2ccnc(-c3ccn[nH]3)c2n1` (stereo not given), the viability, T/C was 99% and 89.7% and 98.1% (compound 0.0316 µM); 76.9% and 79.1% and 84.7% (compound 0.1 µM); 64.2% and 62% and 69.8% (compound 0.316 µM); 53.6% and 51.7% and 67.6% (compound 1 µM); 48.9% and 46% and 62.1% (compound 3.16 µM); 50.2% and 47.4% and 57.1% (compound 10 µM). Moreover, the pIC50 (curve of compound) is 5.36 and 5.85 and < 5.00.
As for `CC1COCCN1c1cc(C2(S(C)(=N)=O)CC2)nc(-c2ccnc3[nH]ccc23)n1` (stereo not given), the viability, T/C by setting is: (compound 0.0316 µM) 102% and 96% and 100%; (compound 0.1 µM) 96% and 102% and 100%; (compound 0.316 µM) 100% and 94.3% and 98.1%; (compound 1 µM) 103% and 91.7% and 102%; (compound 3.16 µM) 96.4% and 98.4% and 99.3%; (compound 10 µM) 80.5% and 96.6% and 81.2%. The negative logarithm of the IC50 (pIC50) (curve of compound) was below 5.00.
Regarding `CCCS(=O)(=O)Nc1ccc(F)c(C(=O)c2c[nH]c3ncc(-c4ccc(Cl)cc4)cc23)c1F`, the viability, T/C is 106% and 102% and 97.1% (compound 0.0316 µM); 94.9% and 109% and 95.8% (compound 0.1 µM); 95.9% and 109% and 96.2% (compound 0.316 µM); 108% and 103% and 104% (compound 1 µM); 110% and 103% and 109% (compound 3.16 µM); 87.5% and 88.3% and 86% (compound 10 µM). Besides, the pIC50 (curve of compound) is below 5.00.
With `CC[C@@]1(O)C(=O)OCc2c1cc1n(c2=O)Cc2cc3c(CN(C)C)c(O)ccc3nc2-1`, the viability, T/C (compound 0.000316 µM) was 94.3% and 106% and 102%; the viability, T/C (compound 0.001 µM) is 105% and 101% and 103%; the viability, T/C (compound 0.00316 µM) was 102%; the viability, T/C (compound 0.01 µM) was 96.3% and 98.2% and 106%; the viability, T/C (compound 0.0316 µM) is 101% and 113% and 103%; the viability, T/C (compound 0.1 µM) was 94.8% and 111% and 89.7%. The pIC50 (curve of compound) is below 7.00.
Take `CCc1c2c(nc3ccc(O)cc13)-c1cc3c(c(=O)n1C2)COC(=O)[C@]3(O)CC`: the viability, T/C reads like this: (compound 0.00316 µM) 92.3% and 98.2% and 97%; (compound 0.01 µM) 79.9% and 89.2% and 92.2%; (compound 0.0316 µM) 76.8% and 99.3% and 92.6%; (compound 0.1 µM) 77.9% and 90.7% and 82.1%; (compound 0.316 µM) 65.9% and 87.4% and 76%; (compound 1 µM) 49.6% and 66.4% and 51.3%. The pIC50 (curve of compound) is below 6.00.
For the compound `CNCc1ccc(-c2[nH]c3cc(F)cc4c3c2CCNC4=O)cc1`, the viability, T/C reads like this: (compound 0.0316 µM) 102% and 100% and 94.1%; (compound 0.1 µM) 96.6% and 99.5% and 98.4%; (compound 0.316 µM) 106% and 104% (2×); (compound 1 µM) 104% and 102% and 105%; (compound 3.16 µM) 108% and 118% and 102%; (compound 10 µM) 102% and 111% and 103%. For the same compound, for the setting “curve of compound”, the pIC50 was below 5.00.
As for `COC1C(OC(N)=O)C(O)C(Oc2ccc3c(O)c(NC(=O)c4ccc(O)c(CC=C(C)C)c4)c(=O)oc3c2C)OC1(C)C` (stereo not given), the viability, T/C was 104% [middle of 13 runs] (compound 0.0316 µM); 104% [middle of 13 runs] (compound 0.1 µM); 106% [middle of 13 runs] (compound 0.316 µM); 106% [middle of 13 runs] (compound 1 µM); 110% [middle of 13 runs] (compound 3.16 µM); 110% [middle of 13 runs] (compound 10 µM). Besides, the negative-log IC50 (pIC50) (compound alone, run of 10/31/2023) was below 5.00.
As for `COc1cc(C2c3cc4c(cc3C(OC3OC5COC(C)OC5C(O)C3O)C3COC(=O)C23)OCO4)cc(OC)c1O` (stereo not given), the viability, T/C (compound 0.0316 µM) is 95.6% and 105% and 95.5%; the viability, T/C (compound 0.1 µM) is 91.4% and 94.1% and 99%; the viability, T/C (compound 0.316 µM) was 96% and 96.6% and 109%; the viability, T/C (compound 1 µM) was 97.5% (2×) and 101%; the viability, T/C (compound 3.16 µM) is 91.6% and 99.4% and 94.1%; the viability, T/C (compound 10 µM) was 90.2% and 90.4% and 80.9%. Besides, the pIC50 (curve of compound) was below 5.00.
